The values below come from patent US6395729B1, “Use of pyridazino[4,5-b]indole-1-acetamide derivatives for preparing medicines for treating diseases related to the dysfunction of peripheral benzodiazepin receptors” (Sanofi-Synthelabo, priority 1999, dated 2002).

Experiment [1] relates to motoneurons of the facial nucleus. Briefly: Survival of the motoneurons after cutting of the facial nerve in 4-day-old rats. The experiment is classed as in vivo, rat. Conditions: 7 d treatment, i.p. route. Here is the method:
Test of Survival of the Motoneurons After Cutting of the Facial Nerve in 4-day-old Rats
After lesioning of the facial nerve in immature rats, the motoneurons of the facial nucleus undergo neuronal death by apoptosis. The evaluation of neuronal survival is carried out using histological and neuronal counting methods.
4-Day-old immature rats are anaesthetized with pentobarbital (3 mg/kg by the i.p. route). The right facial nerve is exposed and cut, where it leaves the stylomastoid foramen. After regaining consciousness, the young rats are returned to their mothers and treated, for 7 d, by one or two daily administrations, by the oral or intraperitoneal route, at doses ranging from 1 to 10 mg/kg. 7 d after the lesioning, the animals are decapitated and the brains frozen in isopentane at −40° C. The facial nucleus is cut using a cryostat, into 10 μm sections, in its entirety. The motoneurons are stained with cresyl violet and counted with the aid of the Histo™ software (Biocom™).

Experiment [2] deals with hearts isolated from rabbits. The experiment can be described thus: Cardioprotective effects on isolated rabbit hearts subjected to regional ischaemia and reinfusion. The arrangement: left ventricular pressure, percentage of preischaemic recovery / contracture during reinfusion / maximum and minimum dP/dt values and double frequency-pressure product: dose or concentration left out as unconfirmed. How it is done:
Study of the Cardioprotective Effects
The cardioprotective effects were studied on hearts isolated from rabbits subjected to a regional ischaemia and to a reinfusion. The size of infarction as well as the recovery of the contractile function upon reinfusion were measured.
New Zealand rabbits (2.3 to 2.5 kg, ESD France) are anaesthetized with a ketamine-xylasine mixture and heparinized. The heart is removed and rapidly infused by the retrograde aortic route at a pressure of 75 mmHg with a Krebs Henselheit-type solution. A balloon is introduced into the left ventricle and a telediastolic pressure of 5 mmHg is applied. After a stabilizing period of 20 min, the compound to be studied (1 mM) or the vehicle is added to the infusion solution 15 min before the ischaemia and during the entire duration of the experiment. The regional ischaemia is created by complete ligation of the left coronary artery for 30 min, the heart then being reinfused for 2 h.
The ventricular pressure, heart rate and coronary output parameters are monitored during the whole experiment.
After the reinfusion, the coronary artery is again occluded and China ink is infused in order to delimit the area at risk. Transverse sections are then prepared and incubated in a 1% triphenyltetrazolium solution so as to measure the size of the infarction. The quantification of the necrosed area, expressed as % of the area at risk, is obtained by means of image-analysing software.

The subject of experiment [3] is kidneys (renal ischaemia-reinfusion). Briefly: Renoprotective effects, renal artery occlusion-reinfusion in rats. It is filed as in vivo, rat. The note with it: 3 mg/kg i.p. 60 min before the occlusion. Here is the method:
Study of the Renoprotective Effects
The experiment is carried out on Sprague-Dawley male rats (Charles River France) of 270 to 330 g. The animals are anaesthetized with pentobarbital (60 mg/kg i.p.), intubated and artificially ventilated, their temperature is maintained between 37 and 38° C.
A 3 cm laparotomy is performed on the animal in dorsal decubitus, the right and left renal arteries are exposed and occluded for 30 min, and then the kidneys are reinfused under visual monitoring and the incision is closed. The serum creatinine and urea nitrogen levels are determined from blood samples collected in the orbital sinus, at D0 (before anaesthesia), and then at D1, D2, D3, D4, D8 (after 1 occlusion-reinfusion).
The compound to be studied, or its vehicle (Tween 80 at 2%) is administered at the dose of 3 mg/kg by the i.p. route 60 min before the occlusion.

For the compound `CN(C)C(=O)Cc1nn(-c2ccccc2)c(=O)c2c1c1ccc(Cl)cc1n2C` [Compound No. 1, 7-Chloro-N,N,5-trimethyl-4-oxo-3-phenyl-3,5-dihydro-4H-pyridazino[4,5-b]indole-1-acetamide], the “increase in neuronal survival” value in experiment [1] is recorded as 31%. Besides, the contracture during reinfusion result in experiment [2] was “reduces the contracture”. Moreover, the “left ventricular pressure, percentage of preischaemic recovery” value in experiment [2] (after 2 h of reinfusion) came to 65%. Besides, the “size of the infarction (necrosed area, expressed as % of the area at risk)” value in experiment [2] (compound 1 mM in infusion solution, 30 min ischaemia, 2 h reinfusion) is 22±3.3 % of the area at risk. Moreover, the “reduction in the size of the infarction” value in experiment [2] (compound 1 mM in infusion solution, 30 min ischaemia, 2 h reinfusion, vs controls, p<0.01) worked out at 47%. In addition, the “maximum and minimum dP/dt values and double frequency-pressure product” value in experiment [2] (during reinfusion) was “significantly restores”. For the same compound, in experiment [3] (at D3), the “reduction of creatininaemia compared with the vehicle” value stood at 56% and the “reduction of uraemia compared with the vehicle” value worked out at 49%. Further, the “mortality in the animals” value in experiment [3] (dead/total animals) is recorded as 1/12.
